From PubChem BioAssay AID248 (DTP/NCI, 2004)
Where “and” joins values, the source holds several entries; their conditions need not be identical. Equal entries are not always repeated. Toxic doses and inconclusive results are not listed. Cut-off read from the data, not from the text of the source: active = T/C of 150% or more; inactive = T/C below 125%.

Tested on: L1210 leukemia ip in BDF1 mice, survival T/C
Experiment: NCI In Vivo Anticancer Drug Screen. Data for tumor model L1210 Leukemia (intraperitoneal) in B6D2F1 (BDF1) mice
Conditions: endpoint: mean survival time, higher = longer survival
How it was run: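 Each compound was tested against a transplantable tumor grown in mice. The endpoint was survival, with treated animals benchmarked against vehicle controls as a simple ratio.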

[1] = dose: 100.0 mg/kg/injection, schedule: Q01DX009 (ip), vehicle: saline
[2] = dose: 200.0 mg/kg/injection, schedule: Q01DX009 (ip), vehicle: saline
[3] = dose: 400.0 mg/kg/injection, schedule: Q01DX009 (ip), vehicle: saline
[4] = dose: 100.0 mg/kg/injection, schedule: Q04DX003 (ip), vehicle: Klucel (hydroxypropylcellulose) (HPC)
[5] = dose: 200.0 mg/kg/injection, schedule: Q04DX003 (ip), vehicle: Klucel (hydroxypropylcellulose) (HPC)
[6] = dose: 400.0 mg/kg/injection, schedule: Q04DX003 (ip), vehicle: Klucel (hydroxypropylcellulose) (HPC)
[7] = dose: 100.0 mg/kg/injection, schedule: Q01DX001 (ip), vehicle: saline
[8] = dose: 100.0 mg/kg/injection, schedule: Q04DX003 (ip), vehicle: saline
[9] = dose: 200.0 mg/kg/injection, schedule: Q04DX003 (ip), vehicle: saline
[10] = dose: 400.0 mg/kg/injection, schedule: Q04DX003 (ip), vehicle: saline

Measured: T/C

CC(N)(CO)CO
inactive: [1] 114 % of control | dose: 100.0 mg/kg/injection, schedule: Q04DX002 (ip), vehicle: saline 90 % of control | [2] 122 % of control | dose: 200.0 mg/kg/injection, schedule: Q04DX002 (ip), vehicle: saline 103 % of control | [3] 100 % of control | dose: 400.0 mg/kg/injection, schedule: Q04DX002 (ip), vehicle: saline 103 % of control

O=C(Nc1ccc(C2=NCCN2)cc1)c1ccc(-c2ccc(C(=O)Nc3ccc(C4=NCCN4)cc3)cc2)cc1
inactive: dose: 111.0 mg/kg/injection, schedule: Q01DX Z (ip), vehicle: carboxymethylcellulose (CMC) 105 % of control | dose: 166.0 mg/kg/injection, schedule: Q01DX Z (ip), vehicle: carboxymethylcellulose (CMC) 101 % of control | dose: 250.0 mg/kg/injection, schedule: Q01DX Z (ip), vehicle: carboxymethylcellulose (CMC) 106 % of control | dose: 375.0 mg/kg/injection, schedule: Q01DX Z (ip), vehicle: carboxymethylcellulose (CMC) 109 % of control

CS(=O)(=O)c1cc(N2CC2)ncn1
inactive: dose: 4.0 mg/kg/injection, schedule: Q01DX015 (ip), vehicle: carboxymethylcellulose (CMC) 96 % of control | dose: 8.0 mg/kg/injection, schedule: Q01DX015 (ip), vehicle: carboxymethylcellulose (CMC) 102 % of control | dose: 16.0 mg/kg/injection, schedule: Q01DX015 (ip), vehicle: carboxymethylcellulose (CMC) 108 % of control | dose: 32.0 mg/kg/injection, schedule: Q01DX015 (ip), vehicle: carboxymethylcellulose (CMC) 113 % of control and 120 % of control | dose: 64.0 mg/kg/injection, schedule: Q01DX015 (ip), vehicle: carboxymethylcellulose (CMC) 110 % of control

O=c1ccc2cc(Br)ccc2o1
inactive: [4] 97 % of control | [5] 95 % of control | [6] 97 % of control

CCCCCCCCCCCCCCCCCCNC(=O)Nc1ccccc1[N+](=O)[O-]
inactive: dose: 50.0 mg/kg/injection, schedule: Q01DX009 (ip), vehicle: DMSO 98 % of control | dose: 100.0 mg/kg/injection, schedule: Q01DX009 (ip), vehicle: DMSO 88 % of control | dose: 100.0 mg/kg/injection, schedule: Q04DX003 (ip), vehicle: DMSO 94 % of control | dose: 200.0 mg/kg/injection, schedule: Q04DX003 (ip), vehicle: DMSO 89 % of control

Cc1c(Cl)cccc1NC(=O)COc1ccc(Cl)cc1
inactive: dose: 100.0 mg/kg/injection, schedule: Q01DX009 (ip), vehicle: Klucel (hydroxypropylcellulose) (HPC) 110 % of control | [4] 93 % of control | dose: 200.0 mg/kg/injection, schedule: Q01DX009 (ip), vehicle: Klucel (hydroxypropylcellulose) (HPC) 94 % of control | [5] 91 % of control | dose: 400.0 mg/kg/injection, schedule: Q01DX009 (ip), vehicle: Klucel (hydroxypropylcellulose) (HPC) 95 % of control | [6] 91 % of control

COc1cccc2c1[nH]c1cc3ccncc3cc12
inactive: dose: 25.0 mg/kg/injection, schedule: Q01DX001 (ip), vehicle: saline 107 % of control | dose: 50.0 mg/kg/injection, schedule: Q01DX001 (ip), vehicle: saline 112 % of control | [7] 98 % of control and 102 % of control | [4] 95 % of control | [5] 95 % of control

CCCP(=O)(CCC)C1CCCCC1
inactive: dose: 100.0 mg/kg/injection, schedule: Q01DX001 (ip), vehicle: saline with Tween-80 99 % of control | dose: 200.0 mg/kg/injection, schedule: Q01DX001 (ip), vehicle: saline with Tween-80 98 % of control | dose: 400.0 mg/kg/injection, schedule: Q01DX001 (ip), vehicle: saline with Tween-80 86 % of control

OCC(CO)(CO)CBr
inactive: [1] 96 % of control | [8] 103 % of control | [2] 105 % of control | [9] 98 % of control | [3] 104 % of control | [10] 104 % of control

S=c1cc(-c2cccs2)ss1
inactive: dose: 50.0 mg/kg/injection, schedule: Q01DX009 (ip), vehicle: saline 107 % of control | [1] 96 % of control and 91 % of control | [8] 93 % of control | [2] 93 % of control and 91 % of control | [9] 105 % of control | dose: 300.0 mg/kg/injection, schedule: Q01DX009 (ip), vehicle: saline 95 % of control | [3] 98 % of control | [10] 88 % of control

Nn1nnc2ccccc21
inactive: [7] 95 % of control | dose: 200.0 mg/kg/injection, schedule: Q01DX001 (ip), vehicle: saline 97 % of control | dose: 400.0 mg/kg/injection, schedule: Q01DX001 (ip), vehicle: saline 97 % of control

ClCc1ccccc1CCl
inactive: dose: 5.0 mg/kg/injection, schedule: Q01DX015 (ip), vehicle: carboxymethylcellulose (CMC) 90 % of control | dose: 10.0 mg/kg/injection, schedule: Q01DX015 (ip), vehicle: carboxymethylcellulose (CMC) 87 % of control

Cc1c2c(cc3c1[nH]c1ccccc13)C(c1ccc(Cl)cc1)=NCC2
inactive: dose: 100.0 mg/kg/injection, schedule: Q01DX009 (ip), vehicle: saline with Tween-80 87 % of control | dose: 200.0 mg/kg/injection, schedule: Q01DX009 (ip), vehicle: saline with Tween-80 87 % of control | dose: 400.0 mg/kg/injection, schedule: Q01DX009 (ip), vehicle: saline with Tween-80 88 % of control

O=c1oc2ccc(Cl)cc2c2c1OC(c1ccccc1)CN2 (centres undefined)
inactive: dose: 100.0 mg/kg/injection, schedule: Q01DX001 (ip), vehicle: Klucel (hydroxypropylcellulose) (HPC) 96 % of control | dose: 200.0 mg/kg/injection, schedule: Q01DX001 (ip), vehicle: Klucel (hydroxypropylcellulose) (HPC) 90 % of control | dose: 400.0 mg/kg/injection, schedule: Q01DX001 (ip), vehicle: Klucel (hydroxypropylcellulose) (HPC) 91 % of control

Nc1ccc(C(=O)O)cc1[N+](=O)[O-]
inactive: dose: 100.0 mg/kg/injection, schedule: Q04DX002 (ip), vehicle: Klucel (hydroxypropylcellulose) (HPC) 95 % of control | dose: 200.0 mg/kg/injection, schedule: Q04DX002 (ip), vehicle: Klucel (hydroxypropylcellulose) (HPC) 100 % of control | dose: 400.0 mg/kg/injection, schedule: Q04DX002 (ip), vehicle: Klucel (hydroxypropylcellulose) (HPC) 95 % of control

C=CC(C)(C)CCCC
inactive: [8] 104 % of control | [9] 101 % of control | [10] 110 % of control

O=C(NCCCCNC(=O)Nc1cccc(C2=NCCCN2)c1)Nc1cccc(C2=NCCCN2)c1
inactive: dose: 0.65 mg/kg/injection, schedule: Q01DX Z (ip), vehicle: carboxymethylcellulose (CMC) 97 % of control | dose: 1.3 mg/kg/injection, schedule: Q01DX Z (ip), vehicle: carboxymethylcellulose (CMC) 97 % of control
